# Measured values taken from patent US10722501B2 (BAYER AKTIENGESELLSCHAFT, priority 2016, dated 2020).
# Target: T1, recombinant full-length human prolyl endopeptidase (PREP) (Homo sapiens, UniProt P48147)
# T1 construct: To recombinant full-length human prolyl endopeptidase (PREP, R&D-Systems, 4308-SE); purchased R&D-Systems 4308-SE
# T1 sequence (P48147 1-710): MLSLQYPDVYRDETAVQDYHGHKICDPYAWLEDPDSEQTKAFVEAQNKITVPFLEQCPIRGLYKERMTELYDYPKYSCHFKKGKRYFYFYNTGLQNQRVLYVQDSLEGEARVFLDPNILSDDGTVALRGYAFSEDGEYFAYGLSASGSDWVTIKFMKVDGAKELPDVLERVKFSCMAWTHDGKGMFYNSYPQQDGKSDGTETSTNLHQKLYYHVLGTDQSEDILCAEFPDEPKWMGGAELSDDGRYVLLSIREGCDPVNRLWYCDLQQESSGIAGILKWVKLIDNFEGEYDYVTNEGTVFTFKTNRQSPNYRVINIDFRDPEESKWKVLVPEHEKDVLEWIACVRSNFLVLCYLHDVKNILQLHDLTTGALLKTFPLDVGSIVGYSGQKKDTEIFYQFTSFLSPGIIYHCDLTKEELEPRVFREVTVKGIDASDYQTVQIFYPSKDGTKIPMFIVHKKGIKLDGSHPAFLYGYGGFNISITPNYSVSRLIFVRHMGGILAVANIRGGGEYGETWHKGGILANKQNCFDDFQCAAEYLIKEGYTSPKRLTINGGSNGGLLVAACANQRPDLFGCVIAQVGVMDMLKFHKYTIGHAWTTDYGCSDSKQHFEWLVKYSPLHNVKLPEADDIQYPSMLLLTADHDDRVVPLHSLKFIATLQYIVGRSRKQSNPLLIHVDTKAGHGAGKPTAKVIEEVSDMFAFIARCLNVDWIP
# Assay: Biochemical human prolyl endopeptidase (PREP) assay with fluorescently labelled substrate
# Settings: substrate Z-Gly-Pro-AMC 50 μM, 32° C., 60 min; some as mean values from multiple independent determinations
# Procedure: B-1 Biochemical Human Prolyl Endopeptidase (PREP) Assay for Identification of Inhibitors of PREP Activity Using a Fluorescently Labelled Substrate Principle of the Assay:
# The enzymatic conversion of the fluorescent peptide substrate was observed on the basis of the measurement of the fluorescence intensity. The enzyme activity was determined by the ascertaining of the initial slope in the increase in fluorescence. Compounds that inhibit PREP were identified on the basis of the decrease in the initial slope compared to a reaction mixture without test compound.
# Determination of Activity:
# IC50 values were determined by the plotting of the percentage PREP activity against the concentration of the test substance by interpolation.
# To recombinant full-length human prolyl endopeptidase (PREP, R&D-Systems, 4308-SE; final concentration, for example, 0.4 nM, volume: 25 μl) in reaction buffer (50 mM Tris-HCl, pH 7.5; 150 mM NaCl; 0.13% BSA, 5 mM EDTA, 3 mM GSH, 0.005% Brij-35) was added a test compound (in DMSO, in an appropriate final concentration range from 1 nM to 30 μM, volume: 1 μl) in a well of a 384-well microtitre plate. The reaction was initiated by adding the substrate Z-Gly-Pro-AMC (final concentration 50 μM; Z=carboxybenzyl; AMC=7-amino-4-methylcoumarin, volume: 25 μl). The progress of the PREP reaction was observed by measuring the fluorescence intensity in a Tecan SAFIRE II plate spectrophotometer at 32° C. over a period of 60 min (excitation wavelength: 360 nm, emission wavelength: 465 nm).
# Table B-1 below collates the IC50 values thus obtained from the human prolyl endopeptidase assay for individual working examples of the invention (some as mean values from multiple independent individual determinations).
row,IC50,Structure (SMILES)
1,99.5 nM,"Cc1nc(Cn2nc3n(c2=O)C(C(=O)N2CCCC2)CCC3)no1 (racemic) [Example 12, (5RS)-2-[(5-Methyl-1,2,4-oxadiazol-3-yl)methyl]-5-(pyrrolidin-1-ylcarbonyl)-5,6,7,8-tetrahydro[1,2,4]triazolo[4,3-a]pyridin-3(2H)-one]"
2,5.4 nM,"Cc1cc(Cn2nc3n(c2=O)C(C(=O)N2CCCC2)CCC3)on1 (racemic) [Example 13, (5RS)-2-[(3-Methyl-1,2-oxazol-5-yl)methyl]-5-(pyrrolidin-1-ylcarbonyl)-5,6,7,8-tetrahydro[1,2,4]triazolo[4,3-a]pyridin-3(2H)-one]"
3,0.3 nM,O=C(C1CCCc2nn(Cc3ccc(C(F)(F)F)c(F)c3)c(=O)n21)N1CCCC1 (racemic) [Example 14]
4,8.4 nM,"Cc1cc(Cn2nc3n(c2=O)C(C(=O)N2CCCC2)CCC3)ccn1 (racemic) [Example 15, (5RS)-2-[(2-Methylpyridin-4-yl)methyl]-5-(pyrrolidin-1-ylcarbonyl)-5,6,7,8-tetrahydro[1,2,4]triazolo[4,3-a]pyridin-3(2H)-one]"
5,2.2 nM,"O=C(C1CCCc2nn(Cc3cccc(F)c3)c(=O)n21)N1CCCC1 (racemic) [Example 16, (5RS)-2-(3-Fluorobenzyl)-5-(pyrrolidin-1-ylcarbonyl)-5,6,7,8-tetrahydro[1,2,4]triazolo[4,3-a]pyridin-3(2H)-one]"
6,1.2 nM,"O=C(C1CCCc2nn(Cc3ccc(F)c(F)c3)c(=O)n21)N1CCCC1 (racemic) [Example 17, (5RS)-2-(3,4-Difluorobenzyl)-5-(pyrrolidin-1-ylcarbonyl)-5,6,7,8-tetrahydro[1,2,4]triazolo[4,3-a]pyridin-3(2H)-one]"
7,0.575 nM,"O=C(C1CCCc2nn(Cc3ccc(F)c(Cl)c3)c(=O)n21)N1CCCC1 (racemic) [Example 18, (5RS)-2-(3-Chloro-4-fluorobenzyl)-5-(pyrrolidin-1-ylcarbonyl)-5,6,7,8-tetrahydro[1,2,4]triazolo[4,3-a]pyridin-3(2H)-one]"
8,0.57 nM,"O=C(C1CCCc2nn(Cc3cccc(C(F)(F)F)c3)c(=O)n21)N1CCCC1 (racemic) [Example 19, (5RS)-5-(Pyrrolidin-1-ylcarbonyl)-2-[3-(trifluoromethyl)benzyl]-5,6,7,8-tetrahydro[1,2,4]triazolo[4,3-a]pyridin-3(2H)-one]"
9,1.5 nM,"COc1cccc(Cn2nc3n(c2=O)C(C(=O)N2CCCC2)CCC3)c1 (racemic) [Example 20, (5RS)-2-(3-Methoxybenzyl)-5-(pyrrolidin-1-ylcarbonyl)-5,6,7,8-tetrahydro[1,2,4]triazolo[4,3-a]pyridin-3(2H)-one]"
10,6.9 nM,"Cn1ccc(Cn2nc3n(c2=O)C(C(=O)N2CCCC2)CCC3)n1 (racemic) [Example 21, (5RS)-2-[(1-Methyl-1H-pyrazol-3-yl)methyl]-5-(pyrrolidin-1-ylcarbonyl)-5,6,7,8-tetrahydro[1,2,4]triazolo[4,3-a]pyridin-3(2H)-one]"
11,42 nM,"O=C(C1CCCc2nn(Cc3ccccn3)c(=O)n21)N1CCCC1 (racemic) [Example 22, (5RS)-2-(Pyridin-2-ylmethyl)-5-(pyrrolidin-1-ylcarbonyl)-5,6,7,8-tetrahydro[1,2,4]triazolo[4,3-a]pyridin-3(2H)-one]"
12,4.95 nM,"O=C(C1CCCc2nn(Cc3ccc(C(F)(F)F)cn3)c(=O)n21)N1CCCC1 (racemic) [Example 23, (5RS)-5-(Pyrrolidin-1-ylcarbonyl)-2-{[5-(trifluoromethyl)pyridin-2-yl]methyl}-5,6,7,8-tetrahydro[1,2,4]triazolo[4,3-a]pyridin-3(2H)-one]"
13,4.9 nM,"Cc1[nH]cnc1Cn1nc2n(c1=O)C(C(=O)N1CCCC1)CCC2 (racemic) [Example 24, (5RS)-2-[(5-Methyl-1H-imidazol-4-yl)methyl]-5-(pyrrolidin-1-ylcarbonyl)-5,6,7,8-tetrahydro[1,2,4]triazolo[4,3-a]pyridin-3(2H)-one]"
14,0.76 nM,"Cc1ccc(Cn2nc3n(c2=O)C(C(=O)N2CCCC2)CCC3)cc1 (racemic) [Example 25, (5RS)-2-(4-Methylbenzyl)-5-(pyrrolidin-1-ylcarbonyl)-5,6,7,8-tetrahydro[1,2,4]triazolo[4,3-a]pyridin-3(2H)-one]"
15,1.28 nM,"O=C(C1CCCc2nn(Cc3ccc(Cl)cc3)c(=O)n21)N1CCCC1 (racemic) [Example 27, (5RS)-2-(4-Chlorobenzyl)-5-(pyrrolidin-1-ylcarbonyl)-5,6,7,8-tetrahydro[1,2,4]triazolo[4,3-a]pyridin-3(2H)-one]"
16,24 nM,"CC(C)(C)OC(=O)c1ccc(Cn2nc3n(c2=O)C(C(=O)N2CCCC2)CCC3)cc1 (racemic) [Example 28, tert-Butyl 4-{[(5RS)-3-oxo-5-(pyrrolidin-1-ylcarbonyl)-5,6,7,8-tetrahydro[1,2,4]triazolo[4,3-a]pyridin-2(3H)-yl]methyl}benzoate]"
17,1.2 nM,"NS(=O)(=O)c1ccc(Cn2nc3n(c2=O)C(C(=O)N2CCCC2)CCC3)cc1 (racemic) [Example 29, 4-{[(5RS)-3-Oxo-5-(pyrrolidin-1-ylcarbonyl)-5,6,7,8-tetrahydro[1,2,4]triazolo[4,3-a]pyridin-2(3H)-yl]methyl}benzenesulphonamide]"
18,1.6 nM,"CSc1ccc(Cn2nc3n(c2=O)C(C(=O)N2CCCC2)CCC3)cc1 (racemic) [Example 30, (5RS)-2-[4-(Methylsulphanyl)benzyl]-5-(pyrrolidin-1-ylcarbonyl)-5,6,7,8-tetrahydro[1,2,4]triazolo[4,3-a]pyridin-3(2H)-one]"
19,2.9 nM,"O=C(C1CCCc2nn(Cc3ccc(Cl)nc3)c(=O)n21)N1CCCC1 (racemic) [Example 31, (5RS)-2-[(6-Chloropyridin-3-yl)methyl]-5-(pyrrolidin-1-ylcarbonyl)-5,6,7,8-tetrahydro[1,2,4]triazolo[4,3-a]pyridin-3(2H)-one]"
20,7.7 nM,"O=C(C1CCCc2nn(Cc3ccc(Cl)cn3)c(=O)n21)N1CCCC1 (racemic) [Example 33, (5RS)-2-[(5-Chloropyridin-2-yl)methyl]-5-(pyrrolidin-1-ylcarbonyl)-5,6,7,8-tetrahydro[1,2,4]triazolo[4,3-a]pyridin-3(2H)-one]"
21,15 nM,"N#Cc1ccc(Cn2nc3n(c2=O)C(C(=O)N2CCCC2)CCC3)cn1 (racemic) [Example 35, 5-{[(5RS)-3-Oxo-5-(pyrrolidin-1-ylcarbonyl)-5,6,7,8-tetrahydro[1,2,4]triazolo[4,3-a]pyridin-2(3H)-yl]methyl}pyridine-2-carbonitrile]"
22,3.65 nM,"COc1ccc(Cn2nc3n(c2=O)C(C(=O)N2CCCC2)CCC3)cc1 (racemic) [Example 36, (5RS)-2-(4-Methoxybenzyl)-5-(pyrrolidin-1-ylcarbonyl)-5,6,7,8-tetrahydro[1,2,4]triazolo[4,3-a]pyridin-3(2H)-one]"
23,0.83 nM,O=C(C1CCCc2nn(Cc3ccc(Cl)c(C(F)(F)F)c3)c(=O)n21)N1CCCC1 (racemic) [Example 37]
24,1 nM,"O=C(C1CCCc2nn(Cc3cccc(Cl)c3)c(=O)n21)N1CCCC1 (racemic) [Example 38, (5RS)-2-(3-Chlorobenzyl)-5-(pyrrolidin-1-ylcarbonyl)-5,6,7,8-tetrahydro[1,2,4]triazolo[4,3-a]pyridin-3(2H)-one]"
25,0.55 nM,"O=C(C1CCCc2nn(Cc3ccc(Cl)c(Cl)c3)c(=O)n21)N1CCCC1 (racemic) [Example 39, (5RS)-2-(3,4-Dichlorobenzyl)-5-(pyrrolidin-1-ylcarbonyl)-5,6,7,8-tetrahydro[1,2,4]triazolo[4,3-a]pyridin-3(2H)-one]"
26,5.2 nM,"O=C(C1CCCc2nn(CC3CCC(C(F)(F)F)CC3)c(=O)n21)N1CCCC1 (racemic) [Example 40, (5RS)-5-(Pyrrolidin-1-ylcarbonyl)-2-{[4-(trifluoromethyl)cyclohexyl]methyl}-5,6,7,8-tetrahydro[1,2,4]triazolo[4,3-a]pyridin-3(2H)-one]"
